Key:
[1] = system: AKT protein phosphorylated on serine 473 (pAKT-S473); assay: Study of pAKT expression in PC3 human prostate carcinoma cells measured by western blotting (Test A); format: cell-based; settings: PC-3, inhibition of AKT phosphorylation (pAKT-S473), 1 to 2 hours incubation, absolute IC50, mean of two experiments
[2] = system: AKT protein phosphorylated on serine 473 (P-AKT-S473); assay: Study of pAKT expression in PC3 human prostate carcinoma cells measured by the MSD Multi-spot Biomarker Detection technique (Test B); format: cell-based; settings: PC-3, inhibition of AKT phosphorylation (P-AKT-S473), MSD sandwich immunoassay, 1 to 2 h incubation, absolute IC50, mean of 2 experiments
Outline: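 Lysate P-AKT-S473 quantified by MSD electrochemiluminescent sandwich immunoassay; inhibition vs DMSO and cell-free background, IC50 averaged over 2 experiments.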

SMILES | melting point [°C] | IC50 [1] [µM] | IC50 [2] [µM]
O=C(Cc1nc(N2CCOCC2)cc(=O)[nH]1)Nc1cccc(F)c1F [Example 12, N-(2,3-difluorophenyl)-2-[4-(morpholin-4-yl)-6-oxo-1,6-dihydropyrimidin-2-yl]acetamide] | 248 | 0.737 | 
O=C(Cc1nc(N2CCOCC2)cc(=O)[nH]1)Nc1ccc(F)c(CO)c1 [Example 35, N-[4-fluoro-3-(hydroxymethyl)phenyl]-2-[4-(morpholin-4-yl)-6-oxo-1,6-dihydropyrimidin-2-yl]acetamide] | > 260 | 10 | 
O=C(Cc1nc(N2CCOCC2)cc(=O)[nH]1)Nc1cccc(C2CC2)c1 [Example 36, N-(3-cyclopropylephenyl)-2-[4-(morpholin-4-yl)-6-oxo-1,6-dihydropyrimidin-2-yl]acetamide] | 246 | 0.2 | 
O=C(Cc1nc(N2CCOCC2)cc(=O)[nH]1)Nc1ccccc1O [Example 37, N-(2-hydroxyphenyl)-2-[4-(morpholin-4-yl)-6-oxo-1,6-dihydropyrimidin-2-yl]acetamide] | > 260 | 10 | 
CC(C)(C)OC(=O)NCCc1cccc(NC(=O)Cc2nc(N3CCOCC3)cc(=O)[nH]2)c1 [Example 46, 2-methylpropan-2-yl {2-[3-({[4-(morpholin-4-yl)-6-oxo-1,6-dihydropyrimidin-2-yl]acetyl}amino)phenyl]ethyl}-carbamate] | 194 | 2.5 | 
Cn1c(CC(=O)Nc2cccc(Br)c2)nc(N2CCOCC2)cc1=O [Example 69, N-(3-bromophenyl)-2-[1-methyl-4-(morpholin-4-yl)-6-oxo-1,6-dihydropyrimidin-2-yl]acetamide] | 266 | 0.25 | 
COCc1cc(NC(=O)Cc2nc(N3CCOCC3)cc(=O)[nH]2)ccc1F [Example 73, N-[4-fluoro-3-(methoxymethyl)phenyl]-2-[4-(morpholin-4-yl)-6-oxo-1,6-dihydropyrimidin-2-yl]acetamide] | 220 | 0.65 | 
O=C(Cc1nc(N2CCOCC2)cc(=O)[nH]1)Nc1cccc2c1OCCN2 [Example 143, N-(3,4-dihydro-2H-1,4-benzoxazin-8-yl)-2-[4-(morpholin-4-yl)-6-oxo-1,6-dihydropyrimidin-2-yl]acetamide] | 243 |  | 0.473
CCN(CC)CC1CN(C(=O)Cc2nc(N3CCOCC3)cc(=O)[nH]2)c2ccccc21 (centres unmarked) [Example 145, 2-(2-{3-[(diethylamino)methyl]-2,3-dihydro-1 H-indol-1-yl}-2-oxoethyl)-6-(morpholin-4-yl)pyrimidin-4(3 H)-one] | 202 |  | 0.038
O=C(Cc1nc(N2CCOCC2)cc(=O)[nH]1)Nc1cccc2c1NCCC2 [Example 148, 2-[4-(morpholin-4-yl)-6-oxo-1,6-dihydropyrimidin-2-yl]-N-(1,2,3,4-tetrahydroquinolin-8-yl)acetamide] | 232 |  | 0.234

Source: US8993565B2, “(6-oxo-1,6-dihydropyrimidin-2-yl)amide derivatives, preparation thereof and pharmaceutical use thereof as AKT(PKB) phosphorylation inhibitors” (Sanofi, priority 2009, dated 2015)
